The values below come from patent US12060349B2, “Glucosylceramide synthase inhibitors” (Genzyme Corporation, priority 2012, dated 2024).

In general, IC50 refers to the concentration that gives 50% inhibition.

Where two headings read alike, the source gives them in different places.

In assay [1] the target is T1, glucosylceramide synthase (Homo sapiens, UniProt Q16739).
T1 construct: Microsomes were isolated from A375 human melanoma cells; endogenous in cells; host or cells: A375 human melanoma cells (microsomal fraction, 100,000 g pellet)
T1 sequence (Q16739 1-394): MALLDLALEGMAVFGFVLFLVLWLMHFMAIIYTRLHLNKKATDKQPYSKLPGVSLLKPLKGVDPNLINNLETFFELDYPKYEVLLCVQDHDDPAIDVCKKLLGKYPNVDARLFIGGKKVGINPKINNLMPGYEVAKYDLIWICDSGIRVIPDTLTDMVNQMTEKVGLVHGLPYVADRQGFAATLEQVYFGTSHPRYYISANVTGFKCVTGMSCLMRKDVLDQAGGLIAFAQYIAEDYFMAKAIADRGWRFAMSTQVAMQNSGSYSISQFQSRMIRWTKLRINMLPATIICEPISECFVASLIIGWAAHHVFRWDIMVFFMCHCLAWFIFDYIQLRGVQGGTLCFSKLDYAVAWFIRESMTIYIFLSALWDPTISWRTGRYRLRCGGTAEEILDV
As to the kind of experiment: microsomal assay measuring conversion of ceramide to glucosylceramide by HPLC (GCS IC50). The assay is classed as biochemical. Conditions: concentration causing 50% inhibition of glucosylceramide synthase activity. The procedure: Inhibition of glucosylceramide synthase activity for certain compounds of the invention were measured with 1) a microsomal assay that directly measures the conversion of ceramide to glucosylceramide by HPLC and 2) second, cell based, phenotypic assay that monitors cell surface expression of the downstream lipid GM3 by antibody mediated immunofluorescence. The cell based assay was performed in two different cell types, B16 and C32. Cell viability was also assessed in the second, cell-based assay.
The “Compound Number” in the table corresponds to the compound disclosed in the Example of the same number. The results of the microsomal assay are expressed as “GCS IC50”, which represents the concentration of the compound causing 50% inhibition of glucosylceramide synthase activity. The results of the cell based assays (performed in two different cell systems, i.e. B16 mouse melanoma or C32 human melanoma cells) are expressed as “GM3 B16 IC50” or “GM3 C32 IC50” for the B16 assay and the C32 assay, respectively. These values represent the concentration of the compound causing 50% inhibition of GM3 expression on the cell surface. The results of the viability assays are expressed as “Viability, B16 IC50” or “Viability, C32 IC50”, respectively. These values represent the concentration of the compound causing 50% cell death. Values greater than 10 represent a lack of cell death.

Assay [2] relates to GM3 expression on the cell surface, B16 mouse melanoma cells. The assay is described as follows: cell based phenotypic assay, cell surface GM3 by antibody mediated immunofluorescence, B16 (GM3 B16 IC50). Conditions: 50% inhibition of GM3 expression on the cell surface. How it is done:
(§1) The cell based assay was performed in two different cell types, B16 and C32. Cell viability was also assessed in the second, cell-based assay.
(§2) The “Compound Number” in the table corresponds to the compound disclosed in the Example of the same number. […] The results of the cell based assays (performed in two different cell systems, i.e. B16 mouse melanoma or C32 human melanoma cells) are expressed as “GM3 B16 IC50” or “GM3 C32 IC50” for the B16 assay and the C32 assay, respectively. […] The results of the viability assays are expressed as “Viability, B16 IC50” or “Viability, C32 IC50”, respectively. These values represent the concentration of the compound causing 50% cell death. Values greater than 10 represent a lack of cell death.

In assay [3] the test system is GM3 expression on the cell surface, C32 human melanoma cells. The assay is described as follows: cell based phenotypic assay, cell surface GM3 by antibody mediated immunofluorescence, C32 (GM3 C32 IC50). Conditions: 50% inhibition of GM3 expression on the cell surface. How it is done:
as §1, §2

The test system of a further assay is B16 mouse melanoma cells. As to the kind of experiment: cell viability in the B16 cell-based assay (Viability, B16 IC50). Particulars: B16 cells; concentration causing 50% cell death; values greater than 10 represent a lack of cell death; read-out: Viability, B16 IC50. How it is done:
as §1, §2

The test system of the next assay is C32 human melanoma cells. As to the kind of experiment: cell viability in the C32 cell-based assay (Viability, C32 IC50). How it is done:
as §1, §2

Where [4] appears, read: B16 mouse melanoma cells, read-out: GM3 B16 IC50.
[5] abbreviates: C32 human melanoma cells, read-out: GM3 C32 IC50.
The mark [6] stands for this setting: C32 cells; concentration causing 50% cell death; values greater than 10 represent a lack of cell death; read-out: Viability, C32 IC50.

For “1-(4-(4-(2-Methoxyethoxy)phenyl)-2-methylbut-3-yn-2-yl)-3-(3-propylquinuclidin-3-yl)urea [Example 330]”, the IC50 is 104 nM in assay [1]; 203 nM in assay [2] (setting [4]); 6.41 nM in assay [3] (setting [5]); at least 10 µM with B16 mouse melanoma cells; 3160 nM in the assay on C32 human melanoma cells (setting [6]).

Regarding “1-(4-(4-Fluorophenoxy)pyrimidin-2-yl)-N-(3-methylquinuclidin-3-yl)piperidine-4-carboxamide [Example 121]”, the IC50 in assay [1] came to 1.33 nM; in assay [2] (setting [4]), 26.3 nM; in assay [3] (setting [5]), 0.093 nM; with B16 mouse melanoma cells it was 7.65 µM; in the assay with C32 human melanoma cells (setting [6]) it was 100 nM.

Take “1-(5-Fluoro-4-(4-(2-methoxyethoxy)phenyl)pyrimidin-2-yl)-N-(3-methylquinuclidin-3-yl)piperidine-4-carboxamide [Example 57]”: the IC50 was 2.41 nM in assay [1]; 69.3 nM in assay [2] (setting [4]); 0.169 nM in assay [3] (setting [5]); at least 10 µM in the assay on B16 mouse melanoma cells; 1000 nM with C32 human melanoma cells (setting [6]).

For the compound “1-Azabicyclo[3.2.2]nonan-3-yl 4-(4′-fluoro-[1,1′-biphenyl]-3-yl)piperazine-1-carboxylate [Example 25]”, the IC50 in assay [1] worked out at 3480 nM; in assay [2] (setting [4]), 4860 nM; in assay [3] (setting [5]), 9380 nM; with B16 mouse melanoma cells, 5.39 µM; in the assay on C32 human melanoma cells (setting [6]), 5410 nM.

Turning to “2-(3-(3-(Methylcarbamoyl)phenoxy)phenyl)propan-2-ylcarbamate [Example 295]”, the IC50 in assay [1] is 1020 nM; in assay [2] (setting [4]), 1750 nM; in assay [3] (setting [5]), 147 nM; with B16 mouse melanoma cells, at least 10 µM; in the assay with C32 human melanoma cells (setting [6]), at least 10000 nM.

Take “3-Ethyl-N-(4-methyl-1-azabicyclo[3.2.2]nonan-4-yl)-4-(4-phenylpyrimidin-2-yl)piperazine-1-carboxamide [Example 143]”: the IC50 in assay [1] amounted to 1.79 nM; in assay [2] (setting [4]), 52.3 nM; in assay [3] (setting [5]), 0.304 nM; in the assay with B16 mouse melanoma cells it was 3.11 µM; in the assay with C32 human melanoma cells (setting [6]), 3160 nM.

As to “4-(4-(4-Fluorophenyl)pyrimidin-2-yl)-3-methyl-N-(4-methyl-1-azabicyclo[3.2.2]nonan-4-yl)piperazine-1-carboxamide [Example 146]”, the IC50 in assay [1] turned out to be 16.6 nM; in assay [2] (setting [4]), 110 nM; in assay [3] (setting [5]), 0.559 nM; with B16 mouse melanoma cells, 6.37 µM; with C32 human melanoma cells (setting [6]) it was 1000 nM.

For the compound “4-(4′-Fluoro-[1,1′-biphenyl]-3-yl)-N-(4-methyl-1-azabicyclo[3.2.2]nonan-4-yl)piperazine-1-carboxamide [Example 22]”, the concentration for half-maximal inhibition (IC50) in assay [1] is 613 nM; in assay [2] (setting [4]), 629 nM; in assay [3] (setting [5]) it was 41.1 nM; with B16 mouse melanoma cells, 7.06 µM; in the assay with C32 human melanoma cells (setting [6]) it was 1000 nM.

Turning to “4-([1,1′-Biphenyl]-3-yl)-3-methyl-N-(4-methyl-1-azabicyclo[3.2.2]nonan-4-yl)piperazine-1-carboxamide [Example 32]”, the concentration for half-maximal inhibition (IC50) amounted to 544 nM in assay [1]; 462 nM in assay [2] (setting [4]); 46.5 nM in assay [3] (setting [5]); 7.29 µM in the assay on B16 mouse melanoma cells; 3160 nM in the assay with C32 human melanoma cells (setting [6]).

With `CCOc1ccc(-c2cccc(C(C)(C)NC(=O)OC3CN4CCC3CC4)c2)nn1` (stereo not shown) [Example 318, Quinuclidin-3-yl (2-(3-(6-ethoxypyridazin-3-yl)phenyl)propan-2-yl)carbamate], the IC50 in assay [1] was 1460 nM; in assay [2] (Mus musculus, read-out: GM3 B16 IC50, B16 mouse melanoma cells), 635 nM; in assay [3] (Homo sapiens, read-out: GM3 C32 IC50, C32 human melanoma cells), 69.9 nM; with C32 human melanoma cells (read-out: Viability, C32 IC50; C32 cells; concentration causing 50% cell death; values greater than 10 represent a lack of cell death), 1000 nM.
